Measured values as given in patent US20210045385A1, “PYRIDAZINONE-SUBSTITUTED KETOXIMES AS HERBICIDES” (FMC Corporation, priority 2018, published 2021).

Columns and labels:
Format in all cases: in vivo
[1] = system: Italian ryegrass (Lolium mutiflorum); assay: Test C postemergence, visual plant response rating
Outline: (§1)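 Compounds in a non-phytotoxic solvent with surfactant were applied as a directed soil spray preemergence or to 2–10 cm, one- to two-leaf plants postemergence, in loam–sand soil. After about 10 d in a greenhouse, injury was visually rated against untreated controls on a 0–100 scale (100 = complete control).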

[2] = system: ragweed (common ragweed, Ambrosia artemisiifolia); assay: Test C postemergence, visual plant response rating
Outline: as §1

[3] = system: barnyardgrass (Echinochloa crus-galli); assay: Test C postemergence, visual plant response rating
Outline: as §1

kochia (Bassia scoparia) [4] = assay: Test C postemergence, visual plant response rating
Outline: as §1

[5] = system: blackgrass (Alopecurus myosuroides); assay: Test C postemergence, visual plant response rating
Outline: as §1

[6] = system: galium (catchweed bedstraw, Galium aparine); assay: Test C postemergence, visual plant response rating
Outline: as §1

[7] = system: pigweed (Amaranthus retroflexus); assay: Test C postemergence, visual plant response rating
Outline: as §1

corn (Zea mays) = assay: Test C postemergence, visual plant response rating
Outline: as §1

[8] = system: wheat (Triticum aestivum); assay: Test C postemergence, visual plant response rating
Outline: as §1

[9] = system: foxtail, giant (giant foxtail, Setaria faberi); assay: Test C postemergence, visual plant response rating
Outline: as §1

[10] = system: barnyardgrass (Echinochloa crus-galli); assay: Test D flooded paddy test, visual plant response rating; conditions: 250 g ai/ha, scale 0 to 100 (0 no effect, 100 complete control), 13 to 15 d
Outline: (§2)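 2-leaf plants, flooded 3 cm, cpd into paddy water; greenhouse 13–15 d; visual rating vs controls, 0 = no effect, 100 = complete control; dash = no result.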

rice (Oryza sativa) = assay: as above; conditions: 250 g ai/ha, scale 0 to 100 (0 no effect, 100 complete control), 13 to 15 d
Outline: as §2

[11] = system: sedge umbrella (small-flower umbrella sedge, Cyperus difformis); assay: as above; conditions: 250 g ai/ha, scale 0 to 100 (0 no effect, 100 complete control), 13 to 15 d
Outline: as §2

[12] = system: duck salad (Heteranthera limosa); assay: as above; conditions: 250 g ai/ha, scale 0 to 100 (0 no effect, 100 complete control), 13 to 15 d
Outline: as §2

[13] = system: Italian ryegrass (Lolium mutiflorum); assay: Test C preemergence, visual plant response rating; conditions: Test C, 0 is no effect, 100 is complete control
Outline: as §1

[14] = system: ragweed (common ragweed, Ambrosia artemisiifolia); assay: Test C preemergence, visual plant response rating; conditions: Test C, 0 is no effect, 100 is complete control
Outline: as §1

[15] = system: barnyardgrass (Echinochloa crus-galli); assay: Test C preemergence, visual plant response rating; conditions: Test C, 0 is no effect, 100 is complete control
Outline: as §1

kochia (Bassia scoparia) [16] = assay: Test C preemergence, visual plant response rating; conditions: Test C, 0 is no effect, 100 is complete control
Outline: as §1

[17] = system: pigweed (Amaranthus retroflexus); assay: Test C preemergence, visual plant response rating; conditions: Test C, 0 is no effect, 100 is complete control
Outline: as §1

[18] = system: foxtail, giant (giant foxtail, Setaria faberi); assay: Test C preemergence, visual plant response rating; conditions: Test C, 0 is no effect, 100 is complete control
Outline: as §1

[19] = Test C, postemergence, 125 g ai/ha

Compound | Ryegrass, Italian plant response rating (0 to 100 scale) ([1]; Postemergence, 31 g ai/ha) | Ryegrass, Italian plant response rating (0 to 100 scale) [1, 19] | Ragweed plant response rating (0 to 100 scale) ([2]; Postemergence, 31 g ai/ha) | Ragweed plant response rating (0 to 100 scale) [2, 19] | Barnyardgrass plant response rating (0 to 100 scale) ([3]; Postemergence, 31 g ai/ha) | Barnyardgrass plant response rating (0 to 100 scale) [3, 19] | Kochia plant response rating (0 to 100 scale) (kochia (Bassia scoparia) [4]; Postemergence, 31 g ai/ha) | Kochia plant response rating (0 to 100 scale) (kochia (Bassia scoparia) [4]; [19]) | Blackgrass plant response rating (0 to 100 scale) ([5]; Postemergence, 31 g ai/ha) | Blackgrass plant response rating (0 to 100 scale) [5, 19] | Galium plant response rating (0 to 100 scale) ([6]; Postemergence, 31 g ai/ha) | Galium plant response rating (0 to 100 scale) [6, 19] | Pigweed plant response rating (0 to 100 scale) ([7]; Postemergence, 31 g ai/ha) | Pigweed plant response rating (0 to 100 scale) [7, 19] | Corn plant response rating (0 to 100 scale) (corn (Zea mays); Postemergence, 31 g ai/ha) | Corn plant response rating (0 to 100 scale) (corn (Zea mays); [19]) | Wheat plant response rating (0 to 100 scale) ([8]; Postemergence, 31 g ai/ha) | Wheat plant response rating (0 to 100 scale) [8, 19] | Foxtail, Giant plant response rating (0 to 100 scale) ([9]; Postemergence, 31 g ai/ha) | Foxtail, Giant plant response rating (0 to 100 scale) [9, 19] | other results
C#CCO/N=C(\c1cc(Cl)cc(Br)c1)c1c(O)c(C)nn(C)c1=O [Compound 292] | 100 | 100 | 100 | 100 | 30 | 70 | 60 | 100 | 0 | 80 | 100 | 100 | 60 | 90 | 0 | 40 | 60 | 100 | 60 | 100 | Plant response rating, Barnyardgrass (Flood) [10]: 0; Plant response rating, Rice (Flood) (rice (Oryza sativa)): 0; Plant response rating, Sedge, Umbrella (Flood) [11]: 55; Plant response rating, Ducksalad (Flood) [12]: 45; Ryegrass, Italian plant response rating (0 to 100 scale) ([13]; 31 g ai/ha): 80; Ryegrass, Italian plant response rating (0 to 100 scale) ([13]; 125 g ai/ha): 100; Ragweed plant response rating (0 to 100 scale) ([14]; 31 g ai/ha): 90; Ragweed plant response rating (0 to 100 scale) ([14]; 125 g ai/ha): 100; Barnyardgrass plant response rating (0 to 100 scale) ([15]; 31 g ai/ha): 60; Barnyardgrass plant response rating (0 to 100 scale) ([15]; 125 g ai/ha): 100; Kochia plant response rating (0 to 100 scale) (kochia (Bassia scoparia) [16]; 31 g ai/ha): 30; Kochia plant response rating (0 to 100 scale) (kochia (Bassia scoparia) [16]; 125 g ai/ha): 100; Pigweed plant response rating (0 to 100 scale) ([17]; 31 g ai/ha): 50; Pigweed plant response rating (0 to 100 scale) ([17]; 125 g ai/ha): 100; Foxtail, Giant plant response rating (0 to 100 scale) ([18]; 31 g ai/ha): 70; Foxtail, Giant plant response rating (0 to 100 scale) ([18]; 125 g ai/ha): 100
Cc1nn(C)c(=O)c(C(=NOCC2CC2)c2cc(Cl)cc(Cl)c2Cl)c1O [Compound 293] | 100 | 100 | 100 | 100 | 20 | 50 | 0 | 30 | 0 | 0 | 100 | 100 | 20 | 40 | 0 | 10 | 40 | 70 | 40 | 80 | Plant response rating, Barnyardgrass (Flood) [10]: 0; Plant response rating, Rice (Flood) (rice (Oryza sativa)): 0; Plant response rating, Sedge, Umbrella (Flood) [11]: 0; Plant response rating, Ducksalad (Flood) [12]: 0; Ryegrass, Italian plant response rating (0 to 100 scale) ([13]; 31 g ai/ha): 30; Ryegrass, Italian plant response rating (0 to 100 scale) ([13]; 125 g ai/ha): 100; Ragweed plant response rating (0 to 100 scale) ([14]; 31 g ai/ha): 40; Ragweed plant response rating (0 to 100 scale) ([14]; 125 g ai/ha): 100; Barnyardgrass plant response rating (0 to 100 scale) ([15]; 31 g ai/ha): 0; Barnyardgrass plant response rating (0 to 100 scale) ([15]; 125 g ai/ha): 0; Kochia plant response rating (0 to 100 scale) (kochia (Bassia scoparia) [16]; 31 g ai/ha): 0; Kochia plant response rating (0 to 100 scale) (kochia (Bassia scoparia) [16]; 125 g ai/ha): 0; Pigweed plant response rating (0 to 100 scale) ([17]; 31 g ai/ha): 0; Pigweed plant response rating (0 to 100 scale) ([17]; 125 g ai/ha): 70; Foxtail, Giant plant response rating (0 to 100 scale) ([18]; 31 g ai/ha): 90; Foxtail, Giant plant response rating (0 to 100 scale) ([18]; 125 g ai/ha): 100
C=CCON=C(c1cc(Cl)cc(Cl)c1Cl)c1c(O)c(C)nn(C)c1=O [Compound 294] | 50 | 100 | 80 | 100 | 20 | 60 | 20 | 30 | 0 | 0 | 80 | 100 | 20 | 20 | 0 | 10 | 0 | 60 | 40 | 60 | Plant response rating, Barnyardgrass (Flood) [10]: 0; Plant response rating, Rice (Flood) (rice (Oryza sativa)): 0; Plant response rating, Sedge, Umbrella (Flood) [11]: 0; Plant response rating, Ducksalad (Flood) [12]: 0; Ryegrass, Italian plant response rating (0 to 100 scale) ([13]; 31 g ai/ha): 60; Ryegrass, Italian plant response rating (0 to 100 scale) ([13]; 125 g ai/ha): 100; Ragweed plant response rating (0 to 100 scale) ([14]; 31 g ai/ha): 70; Ragweed plant response rating (0 to 100 scale) ([14]; 125 g ai/ha): 100; Barnyardgrass plant response rating (0 to 100 scale) ([15]; 31 g ai/ha): 70; Barnyardgrass plant response rating (0 to 100 scale) ([15]; 125 g ai/ha): 100; Kochia plant response rating (0 to 100 scale) (kochia (Bassia scoparia) [16]; 31 g ai/ha): 0; Kochia plant response rating (0 to 100 scale) (kochia (Bassia scoparia) [16]; 125 g ai/ha): 50; Pigweed plant response rating (0 to 100 scale) ([17]; 31 g ai/ha): 20; Pigweed plant response rating (0 to 100 scale) ([17]; 125 g ai/ha): 80; Foxtail, Giant plant response rating (0 to 100 scale) ([18]; 31 g ai/ha): 70; Foxtail, Giant plant response rating (0 to 100 scale) ([18]; 125 g ai/ha): 100
Cc1nn(C)c(=O)c(C(=NOC(C)C)c2cc(Cl)cc(Cl)c2Cl)c1O [Compound 295] | 100 | 100 | 100 | 100 | 50 | 70 | 0 | 50 | 0 | 0 | 100 | 100 | 60 | 90 | 0 | 30 | 30 | 100 | 70 | 90 | Plant response rating, Barnyardgrass (Flood) [10]: 60; Plant response rating, Rice (Flood) (rice (Oryza sativa)): 60; Plant response rating, Sedge, Umbrella (Flood) [11]: 70; Plant response rating, Ducksalad (Flood) [12]: 65; Ryegrass, Italian plant response rating (0 to 100 scale) ([13]; 31 g ai/ha): 80; Ryegrass, Italian plant response rating (0 to 100 scale) ([13]; 125 g ai/ha): 100; Ragweed plant response rating (0 to 100 scale) ([14]; 31 g ai/ha): 90; Ragweed plant response rating (0 to 100 scale) ([14]; 125 g ai/ha): 100; Barnyardgrass plant response rating (0 to 100 scale) ([15]; 31 g ai/ha): 0; Barnyardgrass plant response rating (0 to 100 scale) ([15]; 125 g ai/ha): 0; Kochia plant response rating (0 to 100 scale) (kochia (Bassia scoparia) [16]; 31 g ai/ha): 0; Kochia plant response rating (0 to 100 scale) (kochia (Bassia scoparia) [16]; 125 g ai/ha): 70; Pigweed plant response rating (0 to 100 scale) ([17]; 31 g ai/ha): 80; Pigweed plant response rating (0 to 100 scale) ([17]; 125 g ai/ha): 100; Foxtail, Giant plant response rating (0 to 100 scale) ([18]; 31 g ai/ha): 100; Foxtail, Giant plant response rating (0 to 100 scale) ([18]; 125 g ai/ha): 100
